Biological target: T1, recombinant human SAE enzyme (Homo sapiens, UniProt Q9UBT2)
T1 sequence (Q9UBT2 1-640): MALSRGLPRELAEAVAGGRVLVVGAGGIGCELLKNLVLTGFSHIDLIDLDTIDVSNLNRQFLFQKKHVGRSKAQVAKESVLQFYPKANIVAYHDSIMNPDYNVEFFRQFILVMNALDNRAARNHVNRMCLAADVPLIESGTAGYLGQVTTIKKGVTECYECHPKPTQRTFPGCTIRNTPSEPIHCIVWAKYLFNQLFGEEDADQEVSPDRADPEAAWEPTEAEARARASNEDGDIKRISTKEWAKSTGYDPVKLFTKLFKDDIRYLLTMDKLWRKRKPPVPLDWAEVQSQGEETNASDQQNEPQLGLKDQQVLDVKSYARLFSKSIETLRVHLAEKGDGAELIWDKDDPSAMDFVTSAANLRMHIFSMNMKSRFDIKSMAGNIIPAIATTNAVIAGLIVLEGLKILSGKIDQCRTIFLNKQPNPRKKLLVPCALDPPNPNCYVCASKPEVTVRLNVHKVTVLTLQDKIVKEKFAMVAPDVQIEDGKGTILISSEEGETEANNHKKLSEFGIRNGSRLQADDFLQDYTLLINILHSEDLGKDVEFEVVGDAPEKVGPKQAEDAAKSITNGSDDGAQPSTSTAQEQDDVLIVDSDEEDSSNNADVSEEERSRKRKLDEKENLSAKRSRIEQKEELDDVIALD
T1 sequence (Q9UBE0 1-346 partner): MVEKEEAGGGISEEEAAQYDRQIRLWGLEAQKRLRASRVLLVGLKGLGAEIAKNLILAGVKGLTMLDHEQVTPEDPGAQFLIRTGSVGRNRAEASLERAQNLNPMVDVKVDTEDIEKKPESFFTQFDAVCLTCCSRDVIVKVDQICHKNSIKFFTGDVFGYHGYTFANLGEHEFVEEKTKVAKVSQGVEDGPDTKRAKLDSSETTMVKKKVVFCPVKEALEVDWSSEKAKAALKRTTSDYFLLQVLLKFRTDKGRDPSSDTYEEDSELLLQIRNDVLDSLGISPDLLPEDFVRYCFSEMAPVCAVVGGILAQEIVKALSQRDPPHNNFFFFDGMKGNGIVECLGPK
Test: SAE HTRF Enzyme Assay
Type: biochemical
Conditions: for IC50: class symbols A-C; for Percent Inhibition / inhibition at 0.111 µM: compound concentration 0.111 μM; for inhibition at 0.111 µM: read-out: Percent Inhibition
Summary of the method: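 SAE 0.11 nM; ATP 0.5 μM; Sumo-Flag 0.125 μM; Ubc9-GST 0.01 μM; 250 μM GSH, 5 mM MgCl2, pH 7.5. 105 min, 24° C. EDTA/KF stop plus Eu/APC antibodies, 2 h, TR-FRET. % inhibition or IC50.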

Compound | IC50 | Percent Inhibition (0.111 µM) | inhibition at 0.111 µM | Percent Inhibition
CC(c1cccc(Cl)c1)n1ccc(C(=O)c2cncnc2N[C@@H]2C[C@H](COS(N)(=O)=O)[C@@H](O)C2)n1 (single isomer, unassigned) [Compound I-360, [(1R,2S,4R)-4-{[5-({1-[(1S)-1-(3-chlorophenyl)ethyl]-1H-pyrazol-3-yl}carbonyl)pyrimidin-4-yl]amino}-2-hydroxycyclopentyl]methyl sulfamate or [(1R,2S,4R)-4-{[5-({1-[(1R)-1-(3-chlorophenyl)ethyl]-1H-pyrazol-3-yl}carbonyl)pyrimidin-4-yl]amino}-2-hydroxycyclopentyl]methyl sulfamate] | < 10 nM | 99% |  | 
CC(c1ccccc1)n1ccc(C(=O)c2cncnc2N[C@@H]2C[C@H](COS(N)(=O)=O)[C@@H](O)[C@H]2O)n1 (single isomer, unassigned) [Compound I-361, {(1R,2R,3S,4R)-2,3-dihydroxy-4-[(5-{[1-((1S)-1-phenylethyl)-1H-pyrazol-3-yl]carbonyl}pyrimidin-4-yl)amino]cyclopentyl}methyl sulfamate or {(1R,2R,3S,4R)-2,3-dihydroxy-4-[(5-{[1-((1R)-1-phenylethyl)-1H-pyrazol-3-yl]carbonyl}pyrimidin-4-yl)amino]cyclopentyl}methyl sulfamate] | 10 to 100 nM | 85% |  | 
CC#CC(C)n1ccc(C(=O)c2cncnc2N[C@@H]2C[C@H](COS(N)(=O)=O)[C@@H](O)C2)n1 (single isomer, unassigned) [Compound I-362, {(1R,2S,4R)-2-hydroxy-4-[(5-{[(1S)-1-(pent-3-yn-2-yl)-1H-pyrazol-3-yl]carbonyl}pyrimidin-4-yl)amino]cyclopentyl}methyl sulfamate or {(1R,2S,4R)-2-hydroxy-4-[(5-{[(1R)-1-(pent-3-yn-2-yl)-1H-pyrazol-3-yl]carbonyl}pyrimidin-4-yl)amino]cyclopentyl}methyl sulfamate] | 10 to 100 nM |  | 52% | 
CC(c1cccc(Br)c1)n1ccc(C(=O)c2cncnc2N[C@@H]2C[C@H](COS(N)(=O)=O)[C@@H](O)[C@@H]2F)c1 (single isomer, unassigned) [Compound I-363, [(1R,2R,3R,4R)-4-{[5-({1-[(1S)-1-(3-bromophenyl)ethyl]-1H-pyrrol-3-yl}carbonyl)pyrimidin-4-yl]amino}-3-fluoro-2-hydroxycyolopentyl]methyl sulfamate or [(1R,2R,3R,4R)-4-{[5-({1-[(1R)-1-(3-bromophenyl)ethyl]-1H-pyrrol-3-yl}carbonyl)pyrimidin-4-yl]amino}-3-fluoro-2-hydroxycyclopentyl]methyl sulfamate] | < 10 nM | 100% |  | 
CC(c1ccc(Cl)o1)n1ccc(C(=O)c2cncnc2N[C@@H]2C[C@H](COS(N)(=O)=O)[C@@H](O)[C@@H]2F)c1 (single isomer, unassigned) [Compound I-364, [(1R,2R,3R,4R)-4-{[5-({1-[(1S)-1-(5-chloro-2-furyl)ethyl]-1H-pyrrol-3-yl}carbonyl)pyrimidin-4-yl]amino}-3-fluoro-2-hydroxycyclopentyl]methyl sulfamate or [(1R,2R,3R,4R)-4-{[5-({1-[(1R)-1-(5-chloro-2-furyl)ethyl]-1H-pyrrol-3-yl}carbonyl)pyrimidin-4-yl]amino}-3-fluoro-2-hydroxycyclopentyl]methyl sulfamate] | < 10 nM | 99% |  | 
Cc1cc(C(=O)c2cncnc2N[C@@H]2C[C@H](COS(N)(=O)=O)[C@@H](O)C2)nn1C(C)c1cccc(Cl)c1 (single isomer, unassigned) [Compound I-365, [(1R,2S,4R)-4-{[5-({1-[(1S)-1-(3-chlorophenyl)ethyl]-5-methyl-1H-pyrazol-3-yl}carbonyl)pyrimidin-4-yl]amino}-2-hydroxycyclopentyl]methyl sulfamate or [(1R,2S,4R)-4-{[5-({1-[(1R)-1-(3-chlorophenyl)ethyl]-5-methyl-1H-pyrazol-3-yl}carbonyl)pyrimidin-4-yl]amino}-2-hydroxycyclopentyl]methyl sulfamate] | 10 to 100 nM | 79% |  | 
CC(c1cccc(Br)n1)n1ccc(C(=O)c2cncnc2N[C@@H]2C[C@H](COS(N)(=O)=O)[C@@H](O)C2)n1 (single isomer, unassigned) [Compound I-366, [(1R,2S,4R)-4-{[5-({1-[(1S)-1-(6-bromopyridin-2-yl)ethyl]-1H-pyrazol-3-yl}carbonyl)pyrimidin-4-yl]amino}-2-hydroxycyclopentyl]methyl sulfamate or [(1R,2S,4R)-4-{[5-({1-[(1R)-1-(6-bromopyridin-2-yl)ethyl]-1H-pyrazol-3-yl}carbonyl)pyrimidin-4-yl]amino}-2-hydroxycyclopentyl]methyl sulfamate] | 10 to 100 nM |  | 92% | 
COC(C)c1cc(C(=O)c2cncnc2N[C@@H]2C[C@H](COS(N)(=O)=O)[C@@H](O)C2)nn1Cc1cccc(Br)c1 (single isomer, unassigned) [Compound I-369a, [(1R,2S,4R)-4-{[5-({1-(3-bromobenzyl)-5-[(1S)-1-methoxyethyl]-1H-pyrazol-3-yl}carbonyl)pyrimidin-4-yl]amino}-2-hydroxycyclopentyl]methyl sulfamate or [(1R,2S,4R)-4-{[5-({1-(3-bromobenzyl)-5-[(1R)-1-methoxyethyl]-1H-pyrazol-3-yl}carbonyl)pyrimidin-4-yl]amino}-2-hydroxycyclopentyl]methyl sulfamate] | < 10 nM |  |  | 98%
COC(C)c1cc(C(=O)c2cncnc2N[C@@H]2C[C@H](COS(N)(=O)=O)[C@@H](O)C2)nn1Cc1cccc(Br)c1 (single isomer, unassigned) [Compound I-369b, [(1R,2S,4R)-4-{[5-({1-(3-bromobenzyl)-5-[(1S)-1-methoxyethyl]-1H-pyrazol-3-yl}carbonyl)pyrimidin-4-yl]amino}-2-hydroxycyclopentyl]methyl sulfamate or [(1R,2S,4R)-4-{[5-({1-(3-bromobenzyl)-5-[(1R)-1-methoxyethyl]-1H-pyrazol-3-yl}carbonyl)pyrimidin-4-yl]amino}-2-hydroxycyclopentyl]methyl sulfamate] | < 10 nM |  |  | 98%
NS(=O)(=O)OC[C@H]1C[C@@H](Nc2ncncc2C(=O)c2ccn(S(=O)(=O)c3cccc(Br)c3)n2)[C@H](O)[C@@H]1O [Compound I-1, [(1R,2R,3S,4R)-4-{[5-({1-[(3-bromophenyl)sulfonyl]-1H-pyrazol-3-yl}carbonyl)pyrimidin-4-yl]amino}-2,3-dihydroxycyclopentyl]methyl sulfamate] | < 10 nM |  | 98% | 
NS(=O)(=O)OC[C@@H]1C[C@@H](Nc2ncncc2C(=O)c2ccn(Cc3cccc(Br)c3)n2)C[C@@H]1O [Compound I-2, {(1S,2S,4R)-4-[(5-{[1-(3-bromobenzyl)-1H-pyrazol-3-yl]carbonyl}pyrimidin-4-yl)amino]-2-hydroxycyclopentyl}methyl sulfamate] |  |  | 99% | 
NS(=O)(=O)OC[C@H]1C[C@@H](Nc2ncncc2C(=O)c2ccn(Cc3cccc(C(F)(F)F)n3)n2)C[C@@H]1O [Compound I-3, [(1R,2S,4R)-2-hydroxy-4-({5-[(1-{[6-(trifluoromethyl)pyridin-2-yl]methyl}-1H-pyrazol-3-yl)carbonyl]pyrimidin-4-yl}amino)cyclopentyl]methyl sulfamate] | < 10 nM |  | 98% | 
Cc1ccn(CCn2ccc(C(=O)c3cncnc3N[C@@H]3C[C@H](COS(N)(=O)=O)[C@@H](O)[C@H]3O)n2)n1 [Compound I-4, [(1R,2R,3S,4R)-2,3-dihydroxy-4-{[5-({1-[2-(3-methyl-1H-pyrazol-1-yl)ethyl]-1H-pyrazol-3-yl}carbonyl)pyrimidin-4-yl]amino}cyclopentyl]methyl sulfamate] | 10 to 100 nM |  | 80% | 
NS(=O)(=O)OC[C@H]1C[C@@H](Nc2ncncc2C(=O)c2ccn(CC3=CCOCC3)c2)[C@@H](F)[C@@H]1O [Compound I-5, {(1R,2R,3R,4R)-4-[(5-{[1-(3,6-dihydro-2H-pyran-4-ylmethyl)-1H-pyrrol-3-yl]carbonyl}pyrimidin-4-yl)amino]-3-fluoro-2-hydroxycyclopentyl}methyl sulfamate] | 10 to 100 nM |  | 89% | 
